{"source": "patent US20260182568A1", "about": "“DISINFECTANT AND PRESERVATIVE COMPOSITIONS” (BJBIOCHEM CO., LTD., priority 2023, published 2026)", "key": {"Aspergillus brasiliensis": {"tested_on": "Aspergillus brasiliensis", "test": "Disk diffusion antibacterial test", "type": "cell-based"}, "Escherichia coli": {"tested_on": "Escherichia coli", "test": "Disk diffusion antibacterial test", "type": "cell-based"}, "Staphylococcus aureus": {"tested_on": "Staphylococcus aureus", "test": "Disk diffusion antibacterial test", "type": "cell-based"}, "Malassezia globosa": {"tested_on": "Malassezia globosa", "test": "Sterilizing power (broth dilution MIC) of anti-dandruff hair care (antifungal) compositions"}, "Candida albicans": {"tested_on": "Candida albicans", "test": "Disk diffusion antibacterial test", "type": "cell-based"}, "Malassezia restricta": {"tested_on": "Malassezia restricta", "test": "Sterilizing power (broth dilution MIC) of anti-dandruff hair care (antifungal) compositions"}, "Malassezia furfur": {"tested_on": "Malassezia furfur", "test": "Sterilizing power (broth dilution MIC) of anti-dandruff hair care (antifungal) compositions"}, "Pseudomonas aeruginosa": {"tested_on": "Pseudomonas aeruginosa", "test": "Disk diffusion antibacterial test", "type": "cell-based"}, "P. aeruginosa": {"tested_on": "P. aeruginosa", "test": "Broth dilution MIC test of antimicrobial and preservative compositions", "type": "cell-based, Pseudomonas aeruginosa", "details": "% only in method b353", "procedure": "(§1) C. albicans was inoculated into Sabouraud dextrose broth and cultured at 25° C. for 24 hours. […] The liquid media used for E. coli, S. aureus, and P. aeruginosa (bacteria) were tryptic soy broth, and the liquid media used for C. albicans, and A. brasiliensis (fungi) were Sabouraud dextrose broth."}, "C. albicans": {"tested_on": "C. albicans", "test": "Broth dilution MIC test of antimicrobial and preservative compositions", "type": "cell-based, Candida albicans", "details": "% only in method b353", "procedure": "as §1"}, "A. brasiliensis": {"tested_on": "A. brasiliensis", "test": "Broth dilution MIC test of antimicrobial and preservative compositions", "type": "cell-based, Aspergillus brasiliensis", "details": "% only in method b353", "procedure": "as §1"}, "E. coli": {"tested_on": "E. coli", "test": "Broth dilution MIC test of antimicrobial and preservative compositions", "type": "cell-based, Escherichia coli", "details": "% only in method b353", "procedure": "as §1"}, "S. aureus": {"tested_on": "S. aureus", "test": "Broth dilution MIC test of antimicrobial and preservative compositions", "type": "cell-based, Staphylococcus aureus", "details": "% only in method b353", "procedure": "as §1"}, "[1]": {"details": "comparison over mixing ratios of Formula 1 with PO, ZPT or CB"}, "[2]": {"details": "Test A (Formula 1 / Formula 2), Tables 2-3"}, "[3]": {"details": "Test B (Formula 1 / Formula 3), Tables 16-17"}, "[4]": {"details": "Formula 1 mixed with climbazole (CB) at mixing ratio (%), broth dilution"}, "[5]": {"details": "Formula 1 mixed with zinc pyrithione (ZPT) at mixing ratio (%), broth dilution"}}, "data": [{"compound": "CCCCCCCCCCCCN(CC(O)CO)CC(O)CO", "note": "(stereo not drawn) [3,3′-(dodecylimino)bispropane-1,2-diol]", "values": [{"measurement": "clear zone where strain growth was inhibited, A. brasiliensis", "setting": "Aspergillus brasiliensis; 50 μl on disk, 1st repetition", "result": 1.5, "unit": "mm"}, {"measurement": "clear zone where strain growth was inhibited, A. brasiliensis", "setting": "Aspergillus brasiliensis; 50 μl on disk, 2nd repetition", "result": 2, "unit": "mm"}, {"measurement": "clear zone where strain growth was inhibited, A. brasiliensis", "setting": "Aspergillus brasiliensis; 50 μl on disk, 3rd repetition", "result": 2, "unit": "mm"}, {"measurement": "clear zone where strain growth was inhibited, A. brasiliensis", "setting": "Aspergillus brasiliensis; Mean of three repetitions", "result": 1.8, "unit": "mm"}, {"measurement": "clear zone where strain growth was inhibited, E. coli", "setting": "Escherichia coli; 50 μl on disk, 1st repetition", "result": 2.5, "unit": "mm"}, {"measurement": "clear zone where strain growth was inhibited, E. coli", "setting": "Escherichia coli; 50 μl on disk, 2nd repetition", "result": 2.5, "unit": "mm"}, {"measurement": "clear zone where strain growth was inhibited, E. coli", "setting": "Escherichia coli; 50 μl on disk, 3rd repetition", "result": 3, "unit": "mm"}, {"measurement": "clear zone where strain growth was inhibited, E. coli", "setting": "Escherichia coli; Mean of three repetitions", "result": 2.6, "unit": "mm"}, {"measurement": "clear zone where strain growth was inhibited, S. aureus", "setting": "Staphylococcus aureus; 50 μl on disk, 1st repetition", "result": 2, "unit": "mm"}, {"measurement": "clear zone where strain growth was inhibited, S. aureus", "setting": "Staphylococcus aureus; 50 μl on disk, 2nd repetition", "result": 3, "unit": "mm"}, {"measurement": "clear zone where strain growth was inhibited, S. aureus", "setting": "Staphylococcus aureus; 50 μl on disk, 3rd repetition", "result": 2.5, "unit": "mm"}, {"measurement": "clear zone where strain growth was inhibited, S. aureus", "setting": "Staphylococcus aureus; Mean of three repetitions", "result": 2.5, "unit": "mm"}, {"measurement": "sterilizing effect against Malassezia globosa (in words)", "setting": "Malassezia globosa; [1]", "result": "lowest sterilizing effect"}, {"measurement": "clear zone where strain growth was inhibited, C. albicans", "setting": "Candida albicans; 50 μl on disk, 1st repetition", "result": 5, "unit": "mm"}, {"measurement": "clear zone where strain growth was inhibited, C. albicans", "setting": "Candida albicans; 50 μl on disk, 2nd repetition", "result": 5, "unit": "mm"}, {"measurement": "clear zone where strain growth was inhibited, C. albicans", "setting": "Candida albicans; 50 μl on disk, 3rd repetition", "result": 6, "unit": "mm"}, {"measurement": "clear zone where strain growth was inhibited, C. albicans", "setting": "Candida albicans; Mean of three repetitions", "result": 5.3, "unit": "mm"}, {"measurement": "sterilizing effect against Malassezia restricta (in words)", "setting": "Malassezia restricta; [1]", "result": "lowest sterilizing effect"}, {"measurement": "sterilizing effect against Malassezia furfur (in words)", "setting": "Malassezia furfur; [1]", "result": "lowest sterilizing effect"}, {"measurement": "clear zone where strain growth was inhibited, P. aeruginosa", "setting": "Pseudomonas aeruginosa; 50 μl on disk, 1st repetition", "result": 1, "unit": "mm"}, {"measurement": "clear zone where strain growth was inhibited, P. aeruginosa", "setting": "Pseudomonas aeruginosa; 50 μl on disk, 2nd repetition", "result": 1.5, "unit": "mm"}, {"measurement": "clear zone where strain growth was inhibited, P. aeruginosa", "setting": "Pseudomonas aeruginosa; 50 μl on disk, 3rd repetition", "result": 1, "unit": "mm"}, {"measurement": "clear zone where strain growth was inhibited, P. aeruginosa", "setting": "Pseudomonas aeruginosa; Mean of three repetitions", "result": 1.2, "unit": "mm"}]}, {"compound": "CCCCCCCCCCCCN(CC(O)CO)CC(O)CO", "note": "(stereo not drawn) [Comparative Example1, 3,3′-(dodecylimino)bispropane-1,2-diol]", "values": [{"measurement": "minimum inhibitory concentration (MIC), P. Aeruginosa", "setting": "P. aeruginosa; [2]", "result": 0.25, "unit": "%"}, {"measurement": "minimum inhibitory concentration (MIC), P. Aeruginosa", "setting": "P. aeruginosa; [3]", "result": 0.25, "unit": "%"}, {"measurement": "minimum inhibitory concentration (MIC), C. albicans", "setting": "C. albicans; [2]", "result": 0.05, "unit": "%"}, {"measurement": "minimum inhibitory concentration (MIC), C. albicans", "setting": "C. albicans; [3]", "result": 0.05, "unit": "%"}, {"measurement": "minimum inhibitory concentration (MIC), A. brasiliensis", "setting": "A. brasiliensis; [2]", "result": 0.1, "unit": "%"}, {"measurement": "minimum inhibitory concentration (MIC), A. brasiliensis", "setting": "A. brasiliensis; [3]", "result": 0.1, "unit": "%"}, {"measurement": "minimum inhibitory concentration (MIC), E. coli", "setting": "E. coli; [2]", "result": 0.1, "unit": "%"}, {"measurement": "minimum inhibitory concentration (MIC), E. coli", "setting": "E. coli; [3]", "result": 0.1, "unit": "%"}, {"measurement": "minimum inhibitory concentration (MIC), S. Aureus", "setting": "S. aureus; [2]", "result": 0.1, "unit": "%"}, {"measurement": "minimum inhibitory concentration (MIC), S. Aureus", "setting": "S. aureus; [3]", "result": 0.1, "unit": "%"}]}, {"compound": "CC(C)(C)C(=O)C(Oc1ccc(Cl)cc1)n1ccnc1", "note": "(stereo not drawn) [climbazole]", "values": [{"measurement": "MIC", "setting": "Malassezia globosa; [4]", "result": 1, "unit": "µg/mL"}, {"measurement": "MIC", "setting": "Malassezia restricta; [4]", "result": 4, "unit": "µg/mL"}, {"measurement": "MIC", "setting": "Malassezia furfur; [4]", "result": 20, "unit": "µg/mL"}]}, {"compound": "Cc1cc(CC(C)CC(C)(C)C)n(O)c(=O)c1", "note": "(stereo not drawn) [piroctone olamine]", "values": [{"measurement": "MIC", "setting": "Malassezia globosa; Malassezia globosa", "result": 4, "unit": "µg/mL"}, {"measurement": "MIC", "setting": "Malassezia restricta; Malassezia restricta", "result": 18, "unit": "µg/mL"}, {"measurement": "MIC", "setting": "Malassezia furfur; Malassezia furfur", "result": 30, "unit": "µg/mL"}]}, {"compound": "zinc pyrithione", "values": [{"measurement": "MIC", "setting": "Malassezia globosa; [5]", "result": 1, "unit": "µg/mL"}, {"measurement": "MIC", "setting": "Malassezia restricta; [5]", "result": 4, "unit": "µg/mL"}, {"measurement": "MIC", "setting": "Malassezia furfur; [5]", "result": 7, "unit": "µg/mL"}]}]}
